Data taken from patent US11564928B1, “Cannabinoid receptor type 2 (CB2) modulators and uses thereof” (Teon Therapeutics, Inc., priority 2020, dated 2023).
Where two headings read alike, the source gives them in different places.

How the values were obtained:
human recombinant CB1R = human recombinant CB1R (Homo sapiens (Human), UniProt P21554); experiment: CB1 receptor binding assay ([3H]CP-55,940 displacement, HEK-293 membranes)
Method: The compounds were evaluated in CB1R and CB2R binding assays using membranes from HEK-293 cells transfected with cDNAs encoding the human recombinant CB1R (Bmax=[…] protein) and human recombinant CB2R (Bmax=[…] protein) (Perkin-Elmer). […]. Compounds were tested following the procedure described by the cell membrane manufacturer. […] CB2R binding assays were carried out with two different buffers: incubation buffer (Tris-HCl, 50 mM; MgCl2, 5 mM; CaCl2 1 mM; BSA, 0.2% at pH 7.4) and washing buffer (Tris-HCl, 50 mM; NaCl 500 mM; BSA, 0.1% at pH 7.4). […] Assays were performed in duplicate and incubated for […] at 37° C. After the incubation, the assay mixture is filtered through 96 GF/C filter plates (Perkin Elmer #6005174) using Perkin Elmer Filtermate Harvester, and then washed four times with ice-cold washing buffer. The filters are dried for 1 hour at 50° C. and [^3H] trapped on filter counted for radioactivity in Perkin Elmer Microscint 20 cocktail (#6013329) using Perkin Elmer MicroBeta2 Reader. […] Data are analyzed and IC50 is calculated using GraphPad Prism 5 and the model “log(inhibitor) vs. response—Variable slope”. The binding affinity of the compounds is Determined by Using the Cheng and Prusoff Equation Ki=IC50/(1+[radioligand]/Kd).

human CB2 receptor = human CB2 receptor (Homo sapiens (Human), UniProt P34972); experiment: CB2 receptor binding assay ([3H]CP-55,940 displacement, HEK-293 membranes)
Chain of human CB2 receptor (P34972 whole entry): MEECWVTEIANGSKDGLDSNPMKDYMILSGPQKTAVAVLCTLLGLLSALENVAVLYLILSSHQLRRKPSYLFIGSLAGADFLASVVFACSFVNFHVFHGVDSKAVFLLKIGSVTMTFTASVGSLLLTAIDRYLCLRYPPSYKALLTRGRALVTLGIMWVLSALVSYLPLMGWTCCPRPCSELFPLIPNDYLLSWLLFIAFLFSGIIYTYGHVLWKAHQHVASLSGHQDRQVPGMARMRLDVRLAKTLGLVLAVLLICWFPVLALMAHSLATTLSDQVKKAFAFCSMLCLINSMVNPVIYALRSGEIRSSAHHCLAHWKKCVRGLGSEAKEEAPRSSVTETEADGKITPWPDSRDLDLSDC
Method: The compounds were evaluated in CB1R and CB2R binding assays using membranes from HEK-293 cells transfected with cDNAs encoding the human recombinant CB1R (Bmax=[…] protein) and human recombinant CB2R (Bmax=[…] protein) (Perkin-Elmer). […] Compounds were tested following the procedure described by the cell membrane manufacturer. […] CB2R binding assays were carried out with two different buffers: incubation buffer (Tris-HCl, 50 mM; MgCl2, 5 mM; CaCl2 1 mM; BSA, 0.2% at pH 7.4) and washing buffer (Tris-HCl, 50 mM; NaCl 500 mM; BSA, 0.1% at pH 7.4). […] Assays were performed in duplicate and incubated for […] at 37° C. […] Data are analyzed and IC50 is calculated using GraphPad Prism 5 and the model “log(inhibitor) vs. response—Variable slope”. The binding affinity of the compounds is Determined by Using the Cheng and Prusoff Equation Ki=IC50/(1+[radioligand]/Kd).

[1] = membranes of HEK-293 cells with human recombinant CB1R, [3H]CP-55,940, class symbols, read-out: CB1 IC50
[2] = membranes of HEK-293 cells with human recombinant CB1R, [3H]CP-55,940, read-out: CB1 IC50
[3] = membranes of HEK-293 cells with human recombinant CB2R, [3H]CP-55,940, read-out: CB2 IC50
[4] = membranes of HEK-293 cells with human recombinant CB2R, [3H]CP-55,940, class symbols, read-out: CB2 IC50

Chain of human recombinant CB1R (P21554 whole entry): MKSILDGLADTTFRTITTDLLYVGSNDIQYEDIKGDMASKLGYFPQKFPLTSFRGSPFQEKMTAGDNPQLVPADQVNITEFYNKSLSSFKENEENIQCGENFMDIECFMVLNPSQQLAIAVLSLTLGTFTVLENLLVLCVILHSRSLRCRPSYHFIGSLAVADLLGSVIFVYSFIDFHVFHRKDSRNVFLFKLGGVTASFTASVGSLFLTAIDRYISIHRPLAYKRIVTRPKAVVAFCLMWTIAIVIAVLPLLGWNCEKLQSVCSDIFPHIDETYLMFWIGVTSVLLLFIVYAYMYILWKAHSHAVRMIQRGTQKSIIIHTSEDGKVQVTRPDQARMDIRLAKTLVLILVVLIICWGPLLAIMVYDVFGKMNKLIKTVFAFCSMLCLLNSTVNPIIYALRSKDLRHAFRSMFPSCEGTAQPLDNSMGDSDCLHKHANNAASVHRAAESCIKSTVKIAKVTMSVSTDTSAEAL

Compound | IC50 (human recombinant CB1R; [1]) [µM] | IC50 (human CB2 receptor; [4]) [µM] | other results
CC(NC(=O)c1c(O)c2cc(Br)cnc2n(Cc2ccc(F)cc2)c1=O)c1ccc(F)cc1 (stereo not shown) [Compound 1, 6-bromo-1-(4-fluorobenzyl)-N-(1-(4-fluorophenyl)ethyl)-4-hydroxy-2-oxo-1,2-dihydro-1,8-naphthyridine-3-carboxamide] | > 1 |  | IC50 (human CB2 receptor): 0.1 to 0.999 µM
O=C(NC1CC2(CCC2)C1)c1cc2cc(-c3ccncn3)cnc2n(CCN2CCOCC2)c1=O [Compound 35, 1-(2-morpholinoethyl)-2-oxo-6-(pyrimidin-4-yl)-N-(spiro[3.3]heptan-2-yl)-1,2-dihydro-1,8-naphthyridine-3-carboxamide] |  |  | IC50 (human recombinant CB1R; [2]): 0.358 µM; IC50 (human CB2 receptor; [3]): 0.0075 µM
O=C(NC1CC2(CC2)C1)c1c(O)c2cccnc2n(Cc2ccc(F)cc2)c1=O [Compound 142, 1-[(4-fluorophenyl)methyl]-4-hydroxy-2-oxo-N-spiro[2.3]hexan-5-yl-1,8-naphthyridine-3-carboxamide] | > 1 |  | IC50 (human CB2 receptor): 0.1 to 0.999 µM
O=C(NC1(CO)CCCCC1)c1c(O)c2cc(-c3ccc(F)cc3)cnc2n(CCN2CCOCC2)c1=O [Compound 121, 6-(4-fluorophenyl)-4-hydroxy-N-(1-(hydroxymethyl)cyclohexyl)-1-(2-morpholinoethyl)-2-oxo-1,2-dihydro-1,8-naphthyridine-3-carboxamide] |  |  | IC50 (human recombinant CB1R; [2]): 2.31 µM; IC50 (human CB2 receptor; [3]): 0.009 µM
C[C@H]1CC[C@@H](NC(=O)c2c(O)c3cc(-c4ccc(OC(F)F)cc4)ccc3n(CCN3CCOCC3)c2=O)CC1 [Compound 158, 6-(4-(difluoromethoxy)phenyl)-4-hydroxy-N-((1s,4S)-4-methylcyclohexyl)-1-(2-morpholinoethyl)-2-oxo-1,2-dihydroquinoline-3-carboxamide] | > 1 | < 0.1 | 
O=C(NC12CC(C1)C2)c1c(O)c2cc(-c3ccc(F)cc3)cnc2n(Cc2ccncc2)c1=O [Compound 129, N-(bicyclo[1.1.1]pentan-1-yl)-6-(4-fluorophenyl)-4-hydroxy-2-oxo-1-(pyridin-4-ylmethyl)-1,2-dihydro-1,8-naphthyridine-3-carboxamide] | > 1 | > 1 | 
O=C(NC1CC2(CCC2)C1)c1cc2cc(-c3ccc(F)cc3)cnc2n(Cc2ccccn2)c1=O [Compound 106, 6-(4-fluorophenyl)-2-oxo-1-(pyridin-2-ylmethyl)-N-(spiro[3.3]heptan-2-yl)-1,2-dihydro-1,8-naphthyridine-3-carboxamide] | > 1 | < 0.1 | 
O=C(NC12CC(C1)C2)c1c(O)c2cccnc2n(CCN2CCOCC2)c1=O [Compound 136, N-(bicyclo[1.1.1]pentan-1-yl)-4-hydroxy-1-(2-morpholinoethyl)-2-oxo-1,2-dihydro-1,8-naphthyridine-3-carboxamide] | > 1 | > 1 | 
COc1ccc(-c2ccc3c(c2)cc(C(=O)NC2CCC(C)(C)CC2)c(=O)n3CCN2CCOCC2)cc1 [Compound 39, N-(4,4-dimethylcyclohexyl)-6-(4-methoxyphenyl)-1-(2-morpholinoethyl)-2-oxo-1,2-dihydroquinoline-3-carboxamide] |  |  | IC50 (human recombinant CB1R; [2]): > 10 µM; IC50 (human CB2 receptor; [3]): 0.0012 µM
CC(C)(CO)NC(=O)c1c(O)c2cc(-c3ccc(F)cc3)cnc2n(CCN2CCOCC2)c1=O [Compound 117, 6-(4-fluorophenyl)-4-hydroxy-N-(1-hydroxy-2-methylpropan-2-yl)-1-(2-morpholinoethyl)-2-oxo-1,2-dihydro-1,8-naphthyridine-3-carboxamide] | > 1 |  | IC50 (human CB2 receptor): 0.1 to 0.999 µM
O=C(NC12CC(C1)C2)c1c(O)c2nccnc2n(CCN2CCOCC2)c1=O [Compound 146, N-(bicyclo[1.1.1]pentan-1-yl)-8-hydroxy-5-(2-morpholinoethyl)-6-oxo-5,6-dihydropyrido[2,3-b]pyrazine-7-carboxamide] | > 1 | > 1 | 
N#Cc1ccc(-c2cnc3c(c2)c(O)c(C(=O)NC2CC4(CCC4)C2)c(=O)n3CCN2CCOCC2)nc1 [Compound 22, 6-(5-cyanopyridin-2-yl)-4-hydroxy-1-(2-morpholinoethyl)-2-oxo-N-(spiro[3.3]heptan-2-yl)-1,2-dihydro-1,8-naphthyridine-3-carboxamide] | > 1 |  | IC50 (human CB2 receptor): 0.1 to 0.999 µM
O=C(NC12CC(C1)C2)c1c(O)c2cc(-c3ccc(F)cc3)cnc2n(Cc2ccc(F)cn2)c1=O [Compound 131, N-(bicyclo[1.1.1]pentan-1-yl)-6-(4-fluorophenyl)-1-((5-fluoropyridin-2-yl)methyl)-4-hydroxy-2-oxo-1,2-dihydro-1,8-naphthyridine-3-carboxamide] | > 1 | > 1 | 
C[C@@H](NC(=O)c1cc2cc(Br)cnc2n(Cc2ccc(F)cc2)c1=O)c1ccc(C#N)cc1 [Compound 91, (R)-6-bromo-N-(1-(4-cyanophenyl)ethyl)-1-(4-fluorobenzyl)-2-oxo-1,2-dihydro-1,8-naphthyridine-3-carboxamide] |  |  | IC50 (human recombinant CB1R; [2]): > 10 µM; IC50 (human CB2 receptor; [3]): 0.007 µM
CC(C)(NC(=O)c1c(O)c2cc(-c3ccc(F)cc3)cnc2n(CCN2CCOCC2)c1=O)C(=O)O [Compound 120, 2-(6-(4-fluorophenyl)-4-hydroxy-1-(2-morpholinoethyl)-2-oxo-1,2-dihydro-1,8-naphthyridine-3-carboxamido)-2-methylpropanoic acid] | > 1 | > 1 | 
COc1ccc(-c2cnc3c(c2)c(O)c(C(=O)N[C@H]2CC[C@H](C)CC2)c(=O)n3CCN2CCOCC2)cc1 [Compound 148, 4-hydroxy-6-(4-methoxyphenyl)-N-((1R,4R)-4-methylcyclohexyl)-1-(2-morpholinoethyl)-2-oxo-1,2-dihydro-1,8-naphthyridine-3-carboxamide] | > 1 | > 1 | 
CC(NC(=O)c1c(O)c2cc(-c3ccc(C#N)cn3)cnc2n(CCN2CCOCC2)c1=O)c1ccc(F)cc1 (stereo not shown) [Compound 21, 6-(5-cyanopyridin-2-yl)-N-(1-(4-fluorophenyl)ethyl)-4-hydroxy-1-(2-morpholinoethyl)-2-oxo-1,2-dihydro-1,8-naphthyridine-3-carboxamide] | > 1 |  | IC50 (human CB2 receptor): 0.1 to 0.999 µM
Cc1c(C(=O)NC2CC3(CCC3)C2)c(=O)n(Cc2ccc(C#N)cc2)c2ncc(Br)cc12 [Compound 77, 6-bromo-1-(4-cyanobenzyl)-4-methyl-2-oxo-N-(spiro[3.3]heptan-2-yl)-1,2-dihydro-1,8-naphthyridine-3-carboxamide] | > 1 |  | IC50 (human CB2 receptor): 0.1 to 0.999 µM
CC(C)Oc1ccc(-c2cnc3c(c2)cc(C(=O)NC2CC4(CCC4)C2)c(=O)n3Cc2ccc(F)cc2)cc1 [Compound 66, 6-(4-isopropoxyphenyl)-1-(4-fluorobenzyl)-2-oxo-N-(spiro[3.3]heptan-2-yl)-1,2-dihydro-1,8-naphthyridine-3-carboxamide] | > 1 | > 1 | 
O=C(NC1CC2(CCC2)C1)c1c(O)c2cc(-c3ccc(F)cc3)ccc2n(CCN2CCOCC2)c1=O [Compound 23, 6-(4-fluorophenyl)-4-hydroxy-1-(2-morpholinoethyl)-2-oxo-N-(spiro[3.3]heptan-2-yl)-1,2-dihydroquinoline-3-carboxamide] |  | < 0.1 | IC50 (human recombinant CB1R): 0.1 to 0.999 µM
CC1(C)CC(NC(=O)c2c(O)c3cc(-c4ccc(F)cc4)cnc3n(CCN3CCOCC3)c2=O)C1 [Compound 111, N-(3,3-dimethylcyclobutyl)-6-(4-fluorophenyl)-4-hydroxy-1-(2-morpholinoethyl)-2-oxo-1,2-dihydro-1,8-naphthyridine-3-carboxamide] |  | < 0.1 | IC50 (human recombinant CB1R): 0.1 to 0.999 µM
O=C(NC1CCCCC1)c1c(O)c2cc(-c3ccc(F)cc3)cnc2n(CCN2CCOCC2)c1=O [Compound 153, N-cyclohexyl-6-(4-fluorophenyl)-4-hydroxy-1-(2-morpholinoethyl)-2-oxo-1,2-dihydro-1,8-naphthyridine-3-carboxamide] | > 1 | < 0.1 | 
CC(NC(=O)c1cc2cc(Br)cnc2n(Cc2ncccn2)c1=O)c1ccc(F)cc1 (stereo not shown) [Compound 64, 6-bromo-N-(1-(4-fluorophenyl)ethyl)-2-oxo-1-(pyrimidin-2-ylmethyl)-1,2-dihydro-1,8-naphthyridine-3-carboxamide] | > 1 | > 1 | 
